In PubChem BioAssay (NCI):
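96-well plates; 48 h exposure; 5 concentrations. Endpoints by linear interpolation between flanking doses. Not reached: highest tested concentration assigned. TGI is the concentration that stops growth completely.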

Columns and labels:
Experiment in all cases: NCI tumour cell line growth inhibition, 48 h
786-0 renal = tested on: 786-0 renal
A498 renal = tested on: A498 renal
A549 NSCLC = tested on: A549 NSCLC
ACHN renal = tested on: ACHN renal
CAKI-1 renal = tested on: CAKI-1 renal
CCRF-CEM leukemia = tested on: CCRF-CEM leukemia
COLO 205 colon = tested on: COLO 205 colon
DLD-1 colon = tested on: DLD-1 colon
DMS 114 small cell lung = tested on: DMS 114 small cell lung
DMS 273 small cell lung = tested on: DMS 273 small cell lung
EKVX NSCLC = tested on: EKVX NSCLC
HCT-116 colon = tested on: HCT-116 colon
HCT-15 colon = tested on: HCT-15 colon
HL-60(TB) leukemia = tested on: HL-60(TB) leukemia
HOP-18 NSCLC = tested on: HOP-18 NSCLC
HOP-62 NSCLC = tested on: HOP-62 NSCLC
HOP-92 NSCLC = tested on: HOP-92 NSCLC
HT29 colon = tested on: HT29 colon
IGROV1 ovarian = tested on: IGROV1 ovarian
K-562 leukemia = tested on: K-562 leukemia
KM12 colon = tested on: KM12 colon
KM20L2 colon = tested on: KM20L2 colon
LOX IMVI melanoma = tested on: LOX IMVI melanoma
LXFL 529 NSCLC = tested on: LXFL 529 NSCLC
M14 melanoma = tested on: M14 melanoma
M19-MEL melanoma = tested on: M19-MEL melanoma
MALME-3M melanoma = tested on: MALME-3M melanoma
MOLT-4 leukemia = tested on: MOLT-4 leukemia
NCI-H23 lung = tested on: NCI-H23 lung
NCI-H460 lung = tested on: NCI-H460 lung
NCI-H522 lung = tested on: NCI-H522 lung
OVCAR-3 ovarian = tested on: OVCAR-3 ovarian
OVCAR-4 ovarian = tested on: OVCAR-4 ovarian
OVCAR-5 ovarian = tested on: OVCAR-5 ovarian
OVCAR-8 ovarian = tested on: OVCAR-8 ovarian
RXF 393 renal = tested on: RXF 393 renal
RXF-631 renal = tested on: RXF-631 renal
SF-268 CNS = tested on: SF-268 CNS
SF-295 CNS = tested on: SF-295 CNS
SF-539 CNS = tested on: SF-539 CNS
SK-MEL-2 melanoma = tested on: SK-MEL-2 melanoma
SK-MEL-28 melanoma = tested on: SK-MEL-28 melanoma
SK-MEL-5 melanoma = tested on: SK-MEL-5 melanoma
SK-OV-3 ovarian = tested on: SK-OV-3 ovarian
SN12C renal = tested on: SN12C renal
SNB-19 CNS = tested on: SNB-19 CNS
SNB-75 CNS = tested on: SNB-75 CNS
SNB-78 CNS = tested on: SNB-78 CNS
SR leukemia = tested on: SR leukemia
SW-620 colon = tested on: SW-620 colon
TK-10 renal = tested on: TK-10 renal
U251 CNS = tested on: U251 CNS
UACC-257 melanoma = tested on: UACC-257 melanoma
UACC-62 melanoma = tested on: UACC-62 melanoma
UO-31 renal = tested on: UO-31 renal
XF 498 CNS = tested on: XF 498 CNS
MCF7 breast = tested on: MCF7 breast
NCI-H226 lung = tested on: NCI-H226 lung
NCI/ADR-RES ovarian = tested on: NCI/ADR-RES ovarian
P388 leukemia = tested on: P388 leukemia
RPMI-8226 leukemia = tested on: RPMI-8226 leukemia
HCC-2998 colon = tested on: HCC-2998 colon

C/C=C/C=C/[C@H]1Cc2cc(O)cc(O)c2O1
TGI (786-0 renal): > 100 µM
TGI (A498 renal): > 100 µM
TGI (A549 NSCLC): > 100 µM
TGI (ACHN renal): > 100 µM
TGI (CAKI-1 renal): > 100 µM
TGI (CCRF-CEM leukemia): > 100 µM
TGI (COLO 205 colon): > 100 µM
TGI (DLD-1 colon): > 100 µM
TGI (DMS 114 small cell lung): > 100 µM
TGI (DMS 273 small cell lung): > 100 µM
TGI (EKVX NSCLC): > 100 µM
TGI (HCT-116 colon): > 100 µM
TGI (HCT-15 colon): > 100 µM
TGI (HL-60(TB) leukemia): 92.8 µM
TGI (HOP-18 NSCLC): > 100 µM
TGI (HOP-62 NSCLC): > 100 µM
TGI (HOP-92 NSCLC): > 100 µM
TGI (HT29 colon): > 100 µM
TGI (IGROV1 ovarian): > 100 µM
TGI (K-562 leukemia): > 100 µM
TGI (KM12 colon): > 100 µM
TGI (KM20L2 colon): > 100 µM
TGI (LOX IMVI melanoma): > 100 µM
TGI (LXFL 529 NSCLC): > 100 µM
TGI (M14 melanoma): > 100 µM
TGI (M19-MEL melanoma): > 100 µM
TGI (MALME-3M melanoma): > 100 µM
TGI (MOLT-4 leukemia): > 100 µM
TGI (NCI-H23 lung): > 100 µM
TGI (NCI-H460 lung): > 100 µM
TGI (NCI-H522 lung): > 100 µM
TGI (OVCAR-3 ovarian): > 100 µM
TGI (OVCAR-4 ovarian): > 100 µM
TGI (OVCAR-5 ovarian): > 100 µM
TGI (OVCAR-8 ovarian): > 100 µM
TGI (RXF 393 renal): > 100 µM
TGI (RXF-631 renal): > 100 µM
TGI (SF-268 CNS): > 100 µM
TGI (SF-295 CNS): > 100 µM
TGI (SF-539 CNS): > 100 µM
TGI (SK-MEL-2 melanoma): > 100 µM
TGI (SK-MEL-28 melanoma): > 100 µM
TGI (SK-MEL-5 melanoma): > 100 µM
TGI (SK-OV-3 ovarian): > 100 µM
TGI (SN12C renal): > 100 µM
TGI (SNB-19 CNS): > 100 µM
TGI (SNB-75 CNS): > 100 µM
TGI (SNB-78 CNS): > 100 µM
TGI (SR leukemia): > 100 µM
TGI (SW-620 colon): > 100 µM
TGI (TK-10 renal): > 100 µM
TGI (U251 CNS): > 100 µM
TGI (UACC-257 melanoma): > 100 µM
TGI (UACC-62 melanoma): > 100 µM
TGI (UO-31 renal): > 100 µM
TGI (XF 498 CNS): > 100 µM

C=C1CC(OC)(C(O)C(=O)N[C@H]2OCO[C@H]3C2O[C@H](C[C@@H](CO)OC)C(C)(C)C3OC)O[C@H](C)[C@@H]1C (stereo not given in full)
TGI (A498 renal): < 0.00932 µM
TGI (A549 NSCLC): < 0.00932 µM
TGI (CAKI-1 renal): < 0.00932 µM
TGI (CCRF-CEM leukemia): 0.0532 µM
TGI (COLO 205 colon): < 0.00932 µM
TGI (DLD-1 colon): < 0.00932 µM
TGI (HCT-116 colon): < 0.00932 µM
TGI (HOP-18 NSCLC): < 0.00932 µM
TGI (HT29 colon): < 0.00932 µM
TGI (IGROV1 ovarian): < 0.00932 µM
TGI (K-562 leukemia): > 93.2 µM
TGI (KM20L2 colon): < 0.00932 µM
TGI (LOX IMVI melanoma): < 0.00932 µM
TGI (M19-MEL melanoma): < 0.00932 µM
TGI (MCF7 breast): > 93.2 µM
TGI (MOLT-4 leukemia): > 93.2 µM
TGI (NCI-H226 lung): < 0.00932 µM
TGI (NCI-H460 lung): < 0.00932 µM
TGI (NCI/ADR-RES ovarian): 0.016 µM
TGI (OVCAR-3 ovarian): < 0.00932 µM
TGI (OVCAR-4 ovarian): < 0.00932 µM
TGI (P388 leukemia): > 93.2 µM
TGI (RPMI-8226 leukemia): < 0.00932 µM
TGI (RXF 393 renal): < 0.00932 µM
TGI (SF-295 CNS): < 0.00932 µM
TGI (SK-MEL-5 melanoma): < 0.00932 µM
TGI (SK-OV-3 ovarian): < 0.00932 µM
TGI (SN12C renal): 0.0114 µM
TGI (SNB-19 CNS): < 0.00932 µM
TGI (SNB-75 CNS): < 0.00932 µM
TGI (SW-620 colon): < 0.00932 µM
TGI (U251 CNS): < 0.00932 µM
TGI (UACC-257 melanoma): < 0.00932 µM
TGI (UACC-62 melanoma): < 0.00932 µM

COc1ccc(C(=O)C(C(=O)C(=O)Nc2nc3ccc(OC)cc3s2)c2ccc(OC)cc2)cc1 (stereo not given)
TGI (786-0 renal): > 100 µM
TGI (A498 renal): > 100 µM
TGI (A549 NSCLC): > 100 µM
TGI (ACHN renal): > 100 µM
TGI (CAKI-1 renal): > 100 µM
TGI (CCRF-CEM leukemia): > 100 µM
TGI (COLO 205 colon): > 100 µM
TGI (DLD-1 colon): > 100 µM
TGI (DMS 114 small cell lung): > 100 µM
TGI (DMS 273 small cell lung): > 100 µM
TGI (EKVX NSCLC): > 100 µM
TGI (HCC-2998 colon): > 100 µM
TGI (HCT-15 colon): > 100 µM
TGI (HL-60(TB) leukemia): > 100 µM
TGI (HOP-18 NSCLC): > 100 µM
TGI (HOP-62 NSCLC): > 100 µM
TGI (HOP-92 NSCLC): > 100 µM
TGI (HT29 colon): > 100 µM
TGI (IGROV1 ovarian): > 100 µM
TGI (K-562 leukemia): > 100 µM
TGI (KM12 colon): > 100 µM
TGI (KM20L2 colon): > 100 µM
TGI (LOX IMVI melanoma): > 100 µM
TGI (LXFL 529 NSCLC): > 100 µM
TGI (M14 melanoma): > 100 µM
TGI (M19-MEL melanoma): > 100 µM
TGI (MALME-3M melanoma): > 100 µM
TGI (MOLT-4 leukemia): > 100 µM
TGI (NCI-H226 lung): > 100 µM
TGI (NCI-H23 lung): > 100 µM
TGI (NCI-H460 lung): > 100 µM
TGI (OVCAR-3 ovarian): > 100 µM
TGI (OVCAR-4 ovarian): > 100 µM
TGI (OVCAR-5 ovarian): > 100 µM
TGI (OVCAR-8 ovarian): > 100 µM
TGI (RPMI-8226 leukemia): > 100 µM
TGI (RXF-631 renal): > 100 µM
TGI (SF-268 CNS): > 100 µM
TGI (SF-295 CNS): > 100 µM
TGI (SF-539 CNS): > 100 µM
TGI (SK-MEL-2 melanoma): > 100 µM
TGI (SK-MEL-28 melanoma): > 100 µM
TGI (SK-MEL-5 melanoma): > 100 µM
TGI (SK-OV-3 ovarian): > 100 µM
TGI (SN12C renal): > 100 µM
TGI (SNB-19 CNS): > 100 µM
TGI (SNB-75 CNS): > 100 µM
TGI (SNB-78 CNS): > 100 µM
TGI (SW-620 colon): > 100 µM
TGI (TK-10 renal): > 100 µM
TGI (U251 CNS): > 100 µM
TGI (UACC-257 melanoma): > 100 µM
TGI (UACC-62 melanoma): > 100 µM
TGI (UO-31 renal): > 100 µM
TGI (XF 498 CNS): > 100 µM
